How the values were obtained:
Format in all cases: biochemical
JAK3 = target: T1, JAK3 (Homo sapiens, UniProt P52333); test: Z'-LYTE FRET kinase assay, 10-point titration
T1 construct: commercial Z'-LYTE kinase assay (Life Technologies)
T1 sequence (P52333 1-1124): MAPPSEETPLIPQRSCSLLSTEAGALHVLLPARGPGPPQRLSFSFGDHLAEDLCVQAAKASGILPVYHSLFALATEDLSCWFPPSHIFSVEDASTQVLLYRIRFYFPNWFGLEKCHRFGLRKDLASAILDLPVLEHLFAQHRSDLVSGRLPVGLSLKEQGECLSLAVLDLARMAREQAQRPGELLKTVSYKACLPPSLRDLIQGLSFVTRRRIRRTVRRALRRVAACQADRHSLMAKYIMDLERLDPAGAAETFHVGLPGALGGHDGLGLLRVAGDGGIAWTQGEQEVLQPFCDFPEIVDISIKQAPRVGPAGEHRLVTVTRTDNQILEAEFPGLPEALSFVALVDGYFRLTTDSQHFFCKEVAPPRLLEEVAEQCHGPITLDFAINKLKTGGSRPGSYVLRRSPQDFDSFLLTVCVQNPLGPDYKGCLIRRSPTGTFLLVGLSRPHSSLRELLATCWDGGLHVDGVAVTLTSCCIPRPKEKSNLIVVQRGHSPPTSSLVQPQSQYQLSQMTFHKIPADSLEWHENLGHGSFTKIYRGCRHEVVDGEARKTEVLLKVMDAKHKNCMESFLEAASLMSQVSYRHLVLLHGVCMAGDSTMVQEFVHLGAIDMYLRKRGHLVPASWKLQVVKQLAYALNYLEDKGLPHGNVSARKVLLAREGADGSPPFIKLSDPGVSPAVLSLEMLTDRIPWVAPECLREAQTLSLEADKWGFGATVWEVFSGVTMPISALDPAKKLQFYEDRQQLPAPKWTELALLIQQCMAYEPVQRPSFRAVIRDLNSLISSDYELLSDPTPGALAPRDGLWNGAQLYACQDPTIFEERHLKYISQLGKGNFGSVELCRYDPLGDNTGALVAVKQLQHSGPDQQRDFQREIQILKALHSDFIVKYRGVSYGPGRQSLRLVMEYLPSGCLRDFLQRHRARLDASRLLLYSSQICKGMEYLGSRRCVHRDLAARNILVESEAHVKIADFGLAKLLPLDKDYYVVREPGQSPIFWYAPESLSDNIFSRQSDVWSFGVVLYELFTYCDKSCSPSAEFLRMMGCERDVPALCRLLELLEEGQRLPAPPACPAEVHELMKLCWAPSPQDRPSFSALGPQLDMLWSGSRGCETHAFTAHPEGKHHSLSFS

JAK1 = JAK1 (Homo sapiens, UniProt P23458); test: kinase inhibition assay
JAK2 = JAK2 (Homo sapiens, UniProt O60674); test: kinase inhibition assay
JAK2, sequence (O60674 whole entry): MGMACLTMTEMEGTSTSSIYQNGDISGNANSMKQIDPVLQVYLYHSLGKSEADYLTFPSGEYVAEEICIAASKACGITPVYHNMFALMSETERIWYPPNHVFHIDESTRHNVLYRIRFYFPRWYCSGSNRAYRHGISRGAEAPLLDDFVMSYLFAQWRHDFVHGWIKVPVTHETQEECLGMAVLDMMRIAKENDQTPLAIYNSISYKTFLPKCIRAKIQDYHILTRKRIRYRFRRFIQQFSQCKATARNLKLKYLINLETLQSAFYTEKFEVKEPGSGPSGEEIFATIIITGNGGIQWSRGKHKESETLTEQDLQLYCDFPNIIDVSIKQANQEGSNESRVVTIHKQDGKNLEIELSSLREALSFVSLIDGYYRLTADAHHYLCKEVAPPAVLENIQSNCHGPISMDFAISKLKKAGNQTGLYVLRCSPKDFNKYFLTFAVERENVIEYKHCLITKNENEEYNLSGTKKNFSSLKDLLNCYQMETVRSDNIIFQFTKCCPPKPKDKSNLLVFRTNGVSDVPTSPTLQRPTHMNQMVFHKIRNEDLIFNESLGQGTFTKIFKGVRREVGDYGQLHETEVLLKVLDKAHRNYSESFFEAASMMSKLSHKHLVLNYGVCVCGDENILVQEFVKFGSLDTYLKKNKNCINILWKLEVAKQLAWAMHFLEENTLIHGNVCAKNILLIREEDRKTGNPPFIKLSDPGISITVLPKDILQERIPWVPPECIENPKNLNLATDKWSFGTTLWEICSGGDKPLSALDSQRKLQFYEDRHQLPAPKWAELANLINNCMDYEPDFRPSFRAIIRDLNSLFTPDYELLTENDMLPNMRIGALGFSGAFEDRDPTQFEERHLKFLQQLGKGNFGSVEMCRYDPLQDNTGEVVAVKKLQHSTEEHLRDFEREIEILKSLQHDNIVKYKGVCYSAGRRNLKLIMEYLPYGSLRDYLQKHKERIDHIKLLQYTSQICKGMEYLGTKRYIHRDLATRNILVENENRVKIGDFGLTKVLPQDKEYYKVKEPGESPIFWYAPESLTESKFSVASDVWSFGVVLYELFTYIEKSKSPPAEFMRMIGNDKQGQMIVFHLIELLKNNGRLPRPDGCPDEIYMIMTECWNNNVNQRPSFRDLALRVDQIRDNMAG

JAK1, sequence (P23458 whole entry): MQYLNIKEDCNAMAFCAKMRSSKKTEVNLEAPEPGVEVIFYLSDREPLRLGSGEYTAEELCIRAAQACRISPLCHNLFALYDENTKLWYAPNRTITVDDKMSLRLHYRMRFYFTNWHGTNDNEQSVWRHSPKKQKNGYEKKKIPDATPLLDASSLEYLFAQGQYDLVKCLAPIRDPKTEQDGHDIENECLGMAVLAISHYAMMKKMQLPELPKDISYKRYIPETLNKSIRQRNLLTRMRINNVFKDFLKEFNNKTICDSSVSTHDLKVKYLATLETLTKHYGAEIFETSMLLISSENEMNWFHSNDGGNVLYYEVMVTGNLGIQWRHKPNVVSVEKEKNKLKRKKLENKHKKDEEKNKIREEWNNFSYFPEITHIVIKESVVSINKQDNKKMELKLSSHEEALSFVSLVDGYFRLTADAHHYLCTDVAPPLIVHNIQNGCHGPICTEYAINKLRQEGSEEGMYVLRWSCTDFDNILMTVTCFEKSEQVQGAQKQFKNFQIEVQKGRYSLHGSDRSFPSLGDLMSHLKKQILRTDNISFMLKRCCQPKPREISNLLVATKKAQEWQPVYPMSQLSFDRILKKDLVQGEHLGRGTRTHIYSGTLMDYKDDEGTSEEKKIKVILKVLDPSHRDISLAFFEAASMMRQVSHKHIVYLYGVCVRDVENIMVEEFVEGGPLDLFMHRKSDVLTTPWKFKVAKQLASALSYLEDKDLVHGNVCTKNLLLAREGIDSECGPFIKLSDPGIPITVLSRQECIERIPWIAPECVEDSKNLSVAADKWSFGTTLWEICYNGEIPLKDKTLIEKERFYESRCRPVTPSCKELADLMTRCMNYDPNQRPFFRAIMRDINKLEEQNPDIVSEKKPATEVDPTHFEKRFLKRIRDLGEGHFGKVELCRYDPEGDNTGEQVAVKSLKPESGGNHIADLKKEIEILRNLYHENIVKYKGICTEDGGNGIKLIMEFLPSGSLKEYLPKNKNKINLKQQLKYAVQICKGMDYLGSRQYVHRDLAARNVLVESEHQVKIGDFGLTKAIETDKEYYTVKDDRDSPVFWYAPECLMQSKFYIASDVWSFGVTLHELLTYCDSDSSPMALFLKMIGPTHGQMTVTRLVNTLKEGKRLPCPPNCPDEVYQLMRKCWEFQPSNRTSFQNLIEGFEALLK

IC50 (JAK3) [µM] | inhibition at 10 µM (JAK1) [%] | inhibition at 10 µM (JAK2) [%] | Structure (SMILES)
0.005 |  |  | C=CC(=O)N1C[C@H](COc2nc(Nc3cnn(C)c3)nc3[nH]cc(Cl)c23)[C@@H](OC)C1 [compound 1, PF-06459988]
1.27 |  |  | C=CC(=O)Nc1cc(NC(=O)c2n[nH]c3c2CCC3)ccc1F [compound 9]
0.389 | 18 | 62 | C=CC(=O)Nc1cc(NC(=O)c2n[nH]c3ccccc23)ccc1F [compound 5]

From article PMC6593427, “DUckCov: a Dynamic Undocking‐Based Virtual Screening Protocol for Covalent Binders” (Chemmedchem, 2019)
